Data as given in patent US9212204B2, “Treatment of rett syndrome using glycyl-L-2-methylprolyl-L-glutamic acid” (priority 2011, dated 2015).
Non-standard residues stand in square brackets, D forms with d. Residues, ends and D or L forms follow the SMILES beside them. αMeP = C[C@@]1(C(=O)O)CCCN1

Experiments:
[1] = system: subjects with an Autism Spectrum Disorder; assay: Placebo-controlled crossover study in subjects with an Autism Spectrum Disorder; assay type: in vivo, human
From the text: To determine whether G-2-MePE can treat symptoms of ASD, we carry out a study in human beings with ASD. Twenty subjects with an Autism Spectrum Disorder are recruited. Subjects are male and aged between 16 and 65 years (Mean=18.1 SD=3.4). All subjects have an IQ >60 and strict DSM-IV-TR diagnosis of Autistic Disorder or Asperger Disorder, Subjects also meet criteria for an Autism Spectrum Disorder according the ADI-R and ADOS-G instruments, and fulfill the proposed DSM-V criteria for and Autism Spectrum Disorder. Subjects are instructed that concomitant medications are to be stable for at least six weeks prior to study. Subjects receiving medication to treat signs of inattention are tested in the morning and instructed to take their medication in the afternoon. Subjects better treated with atypical anti-psychotic medications indicated for autism are excluded. Subjects are screened for known genetic disorders including and those with Fragile X Syndrome or tuberous sclerosis excluded. Subjects with uncontrolled epilepsy are excluded.
The study is a double blind placebo-controlled crossover study with three phases. Subjects enter each phase of the crossover in a randomized order. In the test phases, subjects receive either placebo, 10 mg/kg T.I.D oral G-2-MePE for five days, or 30 mg/kg T.I.D. oral G-2-MePE. Each phase of the crossover is separated by a washout period of fourteen days.
Subjects are tested at baseline using the following instruments: Wechsler IQ, Abberant Behavior Checklist Community Edition (ABC), Vinelands, Yale-Brown Obsessive Compulsive Scale (YBOCS) compulsion subscale, Social Responsiveness Scale (SRS), Clinical Global Impression of Severity (CGI-S) and their carers complete the Caregiver Strain Questionnaire (CSQ).
Subjects are administered two tasks—the Reading the Mind in the Eyes Test—Revised (RMET) and an Eye Tracking (ET) task, as well as Clinical Global Impression of Improvement (CGI-1). Tasks commence two hours following administration of placebo or either dose of G-2-MePE. The RMET is a computer based task that assesses one's ability to read emotions from the eyes of subtle affective facial expressions and is a widely used test of emotion recognition in patients with autism (2001). Importantly, the RMET is capable of detecting improvement with even a single dose of a pharmacological agent (Guastella et al., 2010). Eye tracking issues are characteristic of patients with autism who spend less time looking at the eyes of photographs of human faces. Again, a single administration of a pharmacologic intervention can ameliorate eye tracking deficits in autism (Andari et al, 2010).
Adverse events are also recorded using standard safety measures.
(§1) Statistically, the effect of treatment with G-2-MePE is analysed by conducting a repeated analysis of covariance (ANCOVA) on the effect of treatment on change from baseline scores.

[2] = system: neurons in the CA3 region of the hippocampus; assay: Neuron soma size in the hippocampus; assay type: in vivo, mouse
Procedure: We also measure the effect of G-2-MePE treatment on neuron soma size in the hippocampus. Mice are treated with G-2-MePE as described above for locomotor activity.

[3] = system: subjects with Rett Syndrome; assay: Placebo controlled study in subjects with Rett Syndrome; assay type: in vivo, human
From the text: Thirty subjects with Rett Syndrome are recruited, Subjects are female and aged between […] (Mean=12.1 SD=4.4). All subjects have an IQ<60 and mutations of the MECP2 gene. Subjects also show ether spike activity in the EEG or an increase in lower frequency bands of the BEG as detected by Fast Fourier Transform (FFT). Subjects are instructed that concomitant medications are to be stable for at least six weeks prior to study. Subjects receiving medication to treat signs of inattention are tested in the morning and instructed to take their medication in the afternoon. Subjects with QTc interval >451 msec are excluded.
The study is a randomized double blind placebo controlled parallel study with three doses of either placebo, 10 mg/kg T.I.D oral G-2-MePE for five days, or 30 mg/kg T.I.D. oral G-2-MePE.
Subjects are tested at baseline using the following instruments: The Rett Syndrome Natural History/Clinical Severity Scale, Aberrant Behavior Checklist Community Edition (ABC), Vinelands, Clinical Global Impression of Severity (CGI-S) and their carers completed the Caregiver Strain Questionnaire (CSQ).
Subjects are brought into clinic on an inpatient basis to enable initial baseline recordings of EEG, ECG and respiratory rate continuously for 24 hours using polysomnography technology. Hand movements are also recorded using the Q-Sensor™. Derived EEG measures include: spikes per unit time in the EEG, overall power of frequency bands of the EEG, QTc and heart rate variability (HRV), and respiratory irregularities.
Adverse events are also recorded using standard safety measures and the SMURF elicitation of adverse events
as §1

gastrointestinal cells = settings: cited from earlier work
[4] = 10 or 30 mg/kg T.I.D. oral, vs placebo
[5] = 30 mg/kg T.I.D. oral, compared to placebo

C[C@@]1(C(=O)N[C@@H](CCC(=O)O)C(=O)O)CCCN1C(=O)CN [Example G-2-MePE, Glycyl-L-2-methylprolyl-L-glutamic acid] (H-Gly-[αMeP]-Glu-OH)
percent correct responses on the RMET ([1]; 30 mg/kg T.I.D. oral): increases
Serious Adverse Events ([1]; 10 or 30 mg/kg T.I.D. oral): No Serious Adverse Events
adverse events [1, 4]: no more adverse events than were present during treatment with placebo
tolerability ([1]; ASD population): well tolerated
performance of the RMET test ([1]; overall treatment effect): significant overall improvement
time spent looking at the eye region in the ET test ([1]; overall treatment effect): significant overall improvement
average soma size ([2]; KO animals): increases
soma size ([2]; wild type animals): little or no effect
power of the delta band of the EEG [3, 5]: decreases
spike activity [3, 5]: decreases
subscales Nonverbal Communication, Epilepsy/Seizures, Hand use [3, 5]: significant effects
Serious Adverse Events ([3]; 10 or 30 mg/kg T.I.D. oral): No Serious Adverse Events
heart rate variability ([3]; 10 or 30 mg/kg T.I.D. oral): No effects
increases in QTC ([3]; 10 or 30 mg/kg T.I.D. oral): No instances of increases
respiratory rate ([3]; 10 or 30 mg/kg T.I.D. oral): No effects
adverse events [3, 4]: no more adverse events than are present during treatment with placebo
tolerability ([3]; Rett Syndrome population): well tolerated
Rett Syndrome Natural History/Clinical Severity Score ([3]; overall): no significant effect overall
spikes per unit time in the EEG ([3]; overall treatment effect): significant overall reduction
total hand movements per twenty-four hour period (Q-Sensor) ([3]; significant for the 30 mg/kg T.I.D. dose compared to placebo): reduces
degradation by gastrointestinal cells (gastrointestinal cells): not degraded
uptake by gastrointestinal cells (gastrointestinal cells): taken up
